# PubChem BioAssay AID1963838 (Molecular Pharmacology Branch, DTP, NCI, 2024)
# pIC50: −log10 of the molar value.
# Test system: 855422-203-R-J1-PDC complex spheroid viability
# Assay: Anticancer human tumor 855422-203-R-J1-PDC patient-derived bladder carcinoma cell line growth inhibition [POLQ]
# Settings: for pIC50: curve of first compound; for viability, T/C: stronger effect = lower value
# How it was run: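 Patient-derived tumour cells were co-cultured with HUVEC and mesenchymal stem cells as multicellular spheroids at 37 °C. They were treated with POLQ inhibitors (novobiocin, ART-558, RP6685) alone or combined with other agents. Top concentrations were at or near clinical Cmax (otherwise 10 microM; SN-38 at 1 microM), decreasing in half-log steps.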
# [1] = second compound 0.0316 µM, first compound 0.0316 µM
# [2] = second compound 0.0316 µM, first compound 0.1 µM
# [3] = second compound 0.0316 µM, first compound 0.316 µM
# [4] = second compound 0.0316 µM, first compound 1 µM
# [5] = second compound 0.0316 µM, first compound 3.16 µM
# [6] = second compound 0.0316 µM, first compound 10 µM
# [7] = second compound 0.1 µM, first compound 0.0316 µM
# [8] = second compound 0.1 µM, first compound 0.1 µM
# [9] = second compound 0.1 µM, first compound 0.316 µM
# [10] = second compound 0.1 µM, first compound 1 µM
# [11] = second compound 0.1 µM, first compound 3.16 µM
# [12] = second compound 0.1 µM, first compound 10 µM
# [13] = second compound 0.316 µM, first compound 0.0316 µM
# [14] = second compound 0.316 µM, first compound 0.1 µM
# [15] = second compound 0.316 µM, first compound 0.316 µM
# [16] = second compound 0.316 µM, first compound 1 µM
# [17] = second compound 0.316 µM, first compound 3.16 µM
# [18] = second compound 0.316 µM, first compound 10 µM
# [19] = second compound 1 µM, first compound 0.0316 µM
# [20] = second compound 1 µM, first compound 0.1 µM
# [21] = second compound 1 µM, first compound 0.316 µM
# [22] = second compound 1 µM, first compound 1 µM
# [23] = second compound 1 µM, first compound 3.16 µM
# [24] = second compound 1 µM, first compound 10 µM
# [25] = second compound 3.16 µM, first compound 0.0316 µM
# [26] = second compound 3.16 µM, first compound 0.1 µM
# [27] = second compound 3.16 µM, first compound 0.316 µM
# [28] = second compound 3.16 µM, first compound 1 µM
# [29] = second compound 3.16 µM, first compound 3.16 µM
# [30] = second compound 3.16 µM, first compound 10 µM
# [31] = second compound 10 µM, first compound 0.0316 µM
# [32] = second compound 10 µM, first compound 0.1 µM
# [33] = second compound 10 µM, first compound 0.316 µM
# [34] = second compound 10 µM, first compound 1 µM
# [35] = second compound 10 µM, first compound 3.16 µM
# [36] = second compound 10 µM, first compound 10 µM
# [37] = second compound 0.0316 µM, first compound 0.00316 µM
# [38] = second compound 0.0316 µM, first compound 0.01 µM
# [39] = second compound 0.1 µM, first compound 0.00316 µM
# [40] = second compound 0.1 µM, first compound 0.01 µM
# [41] = second compound 0.316 µM, first compound 0.00316 µM
# [42] = second compound 0.316 µM, first compound 0.01 µM
# [43] = second compound 1 µM, first compound 0.00316 µM
# [44] = second compound 1 µM, first compound 0.01 µM
# [45] = second compound 3.16 µM, first compound 0.00316 µM
# [46] = second compound 3.16 µM, first compound 0.01 µM
# [47] = second compound 10 µM, first compound 0.00316 µM
# [48] = second compound 10 µM, first compound 0.01 µM
# 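Also: spheroids exposed to compounds for seven days before readout.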
structure (smiles),measurement,setting,value
CCCS(=O)(=O)Nc1ccc(F)c(C(=O)c2c[nH]c3ncc(-c4ccc(Cl)cc4)cc23)c1F + Cc1cccc(N(C)C(=O)C2C(O)CCN2c2nc(C)cc(C(F)(F)F)c2C#N)c1,pIC50,second compound 0.0316 µM,5.21
same,pIC50,second compound 0.1 µM,5.21
same,pIC50,second compound 0.316 µM,5.19
same,pIC50,second compound 1 µM,5.22
same,pIC50,second compound 3.16 µM,5.19
same,pIC50,second compound 10 µM,5.17
same,"viability, T/C",[1],104%
same,"viability, T/C",[2],131%
same,"viability, T/C",[3],99.9%
same,"viability, T/C",[4],104%
same,"viability, T/C",[5],109%
same,"viability, T/C",[6],6.85%
same,"viability, T/C",[7],98%
same,"viability, T/C",[8],119%
same,"viability, T/C",[9],99%
same,"viability, T/C",[10],103%
same,"viability, T/C",[11],121%
same,"viability, T/C",[12],8.21%
same,"viability, T/C",[13],103%
same,"viability, T/C",[14],125%
same,"viability, T/C",[15],101%
same,"viability, T/C",[16],110%
same,"viability, T/C",[17],115%
same,"viability, T/C",[18],14.1%
same,"viability, T/C",[19],97%
same,"viability, T/C",[20],111%
same,"viability, T/C",[21],96%
same,"viability, T/C",[22],107%
same,"viability, T/C",[23],123%
same,"viability, T/C",[24],5.7%
same,"viability, T/C",[25],97.8%
same,"viability, T/C",[26],133%
same,"viability, T/C",[27],139%
same,"viability, T/C",[28],127%
same,"viability, T/C",[29],128%
same,"viability, T/C",[30],4.79%
same,"viability, T/C",[31],109%
same,"viability, T/C",[32],134%
same,"viability, T/C",[33],139%
same,"viability, T/C",[34],180%
same,"viability, T/C",[35],142%
same,"viability, T/C",[36],2.01%
CNCc1ccc(-c2[nH]c3cc(F)cc4c3c2CCNC4=O)cc1 + Cc1cccc(N(C)C(=O)C2C(O)CCN2c2nc(C)cc(C(F)(F)F)c2C#N)c1,pIC50,second compound 0.0316 µM,< 5.00
same,pIC50,second compound 0.1 µM,< 5.00
same,pIC50,second compound 0.316 µM,< 5.00
same,pIC50,second compound 1 µM,< 5.00
same,pIC50,second compound 3.16 µM,< 5.00
same,pIC50,second compound 10 µM,< 5.00
same,"viability, T/C",[1],115%
same,"viability, T/C",[2],101%
same,"viability, T/C",[3],99.2%
same,"viability, T/C",[4],104%
same,"viability, T/C",[5],114%
same,"viability, T/C",[6],108%
same,"viability, T/C",[7],101%
same,"viability, T/C",[8],101%
same,"viability, T/C",[9],90.5%
same,"viability, T/C",[10],107%
same,"viability, T/C",[11],111%
same,"viability, T/C",[12],106%
same,"viability, T/C",[13],107%
same,"viability, T/C",[14],115%
same,"viability, T/C",[15],112%
same,"viability, T/C",[16],103%
same,"viability, T/C",[17],113%
same,"viability, T/C",[18],120%
same,"viability, T/C",[19],101%
same,"viability, T/C",[20],105%
same,"viability, T/C",[21],101%
same,"viability, T/C",[22],103%
same,"viability, T/C",[23],114%
same,"viability, T/C",[24],105%
same,"viability, T/C",[25],112%
same,"viability, T/C",[26],108%
same,"viability, T/C",[27],118%
same,"viability, T/C",[28],98.8%
same,"viability, T/C",[29],108%
same,"viability, T/C",[30],111%
same,"viability, T/C",[31],110%
same,"viability, T/C",[32],95.6%
same,"viability, T/C",[33],100%
same,"viability, T/C",[34],104%
same,"viability, T/C",[35],116%
same,"viability, T/C",[36],107%
COc1cccc(OCCCN)c1-c1cc(Nc2cnc(C#N)cn2)n[nH]1 + Cc1cccc(N(C)C(=O)C2C(O)CCN2c2nc(C)cc(C(F)(F)F)c2C#N)c1,pIC50,second compound 0.0316 µM,7.58
same,pIC50,second compound 0.1 µM,7.62
same,pIC50,second compound 0.316 µM,7.59
same,pIC50,second compound 1 µM,7.61
same,pIC50,second compound 3.16 µM,7.63
same,pIC50,second compound 10 µM,7.66
same,"viability, T/C",[37],122%
same,"viability, T/C",[38],162%
same,"viability, T/C",[1],32.3%
same,"viability, T/C",[2],11.9%
same,"viability, T/C",[3],8.13%
same,"viability, T/C",[4],5.03%
same,"viability, T/C",[39],98.7%
same,"viability, T/C",[40],149%
same,"viability, T/C",[7],26.4%
same,"viability, T/C",[8],8.17%
same,"viability, T/C",[9],7.52%
same,"viability, T/C",[10],6.18%
same,"viability, T/C",[41],99.1%
same,"viability, T/C",[42],144%
same,"viability, T/C",[13],34.1%
same,"viability, T/C",[14],13.6%
same,"viability, T/C",[15],7.31%
same,"viability, T/C",[16],6.21%
same,"viability, T/C",[43],97.4%
same,"viability, T/C",[44],133%
same,"viability, T/C",[19],32.1%
same,"viability, T/C",[20],9.07%
same,"viability, T/C",[21],8.72%
same,"viability, T/C",[22],8.98%
same,"viability, T/C",[45],87.8%
same,"viability, T/C",[46],183%
same,"viability, T/C",[25],21.4%
same,"viability, T/C",[26],14.6%
same,"viability, T/C",[27],7.43%
same,"viability, T/C",[28],5.57%
same,"viability, T/C",[47],137%
same,"viability, T/C",[48],94.1%
same,"viability, T/C",[31],28.3%
same,"viability, T/C",[32],11.2%
same,"viability, T/C",[33],9.5%
same,"viability, T/C",[34],7.47%
Cn1ncnc1[C@H]1c2n[nH]c(=O)c3cc(F)cc(c23)N[C@@H]1c1ccc(F)cc1 + Cc1cccc(N(C)C(=O)C2C(O)CCN2c2nc(C)cc(C(F)(F)F)c2C#N)c1,pIC50,second compound 0.0316 µM,< 7.00
same,pIC50,second compound 0.1 µM,< 7.00
same,pIC50,second compound 0.316 µM,< 7.00
same,pIC50,second compound 1 µM,< 7.00
same,pIC50,second compound 3.16 µM,< 7.00
same,pIC50,second compound 10 µM,< 7.00
same,"viability, T/C","second compound 0.0316 µM, first compound 0.000316 µM",114%
same,"viability, T/C","second compound 0.0316 µM, first compound 0.001 µM",107%
same,"viability, T/C",[37],115%
same,"viability, T/C",[38],108%
same,"viability, T/C",[1],108%
same,"viability, T/C",[2],103%
same,"viability, T/C","second compound 0.1 µM, first compound 0.000316 µM",102%
same,"viability, T/C","second compound 0.1 µM, first compound 0.001 µM",103%
same,"viability, T/C",[39],98.5%
same,"viability, T/C",[40],100%
same,"viability, T/C",[7],105%
same,"viability, T/C",[8],107%
same,"viability, T/C","second compound 0.316 µM, first compound 0.000316 µM",108%
same,"viability, T/C","second compound 0.316 µM, first compound 0.001 µM",104%
same,"viability, T/C",[41],116%
same,"viability, T/C",[42],104%
same,"viability, T/C",[13],116%
same,"viability, T/C",[14],104%
same,"viability, T/C","second compound 1 µM, first compound 0.000316 µM",100%
same,"viability, T/C","second compound 1 µM, first compound 0.001 µM",109%
same,"viability, T/C",[43],112%
same,"viability, T/C",[44],102%
same,"viability, T/C",[19],104%
same,"viability, T/C",[20],97.3%
same,"viability, T/C","second compound 3.16 µM, first compound 0.000316 µM",98.6%
same,"viability, T/C","second compound 3.16 µM, first compound 0.001 µM",98%
same,"viability, T/C",[45],96.4%
same,"viability, T/C",[46],113%
same,"viability, T/C",[25],113%
same,"viability, T/C",[26],104%
same,"viability, T/C","second compound 10 µM, first compound 0.000316 µM",109%
same,"viability, T/C","second compound 10 µM, first compound 0.001 µM",103%
same,"viability, T/C",[47],94.4%
same,"viability, T/C",[48],100%
same,"viability, T/C",[31],111%
same,"viability, T/C",[32],99.2%
